Test systems include HS 578T breast; MDA-N; NCI-H23 lung; SK-OV-3 ovarian; BT-549 breast; UO-31 renal; SF-539 CNS; HCC-2998 colon; HOP-62 NSCLC; SF-268 CNS; CAKI-1 renal; SR leukemia; MDA-MB-435; EKVX NSCLC; HOP-92 NSCLC; TK-10 renal; NCI-H460 lung; COLO 205 colon; NCI/ADR-RES ovarian; LOX IMVI melanoma.
Holding throughout (assay): DTP human tumour cell line panel, 48 h

This passage reports TGI results from PubChem BioAssay (NCI).

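Growth conditions: 96-well plates. Treatment: test compound, 48 hours, 5 concentrations. Analysis: linear interpolation between bracketing concentrations; unreached endpoints set to highest concentration. Definition used: TGI = concentration required for complete inhibition of growth.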

What is called TGI is the concentration at which net growth stops. A high value points to less potent growth arrest.

Consider `Cc1cccc(Nc2nc3ccccc3nc2NS(=O)(=O)c2ccccc2)c1`, for which the TGI in the test with HS 578T breast is over 100 µM; with MDA-N it was over 100 µM; in the test with NCI-H23 lung, 93.1 µM; with SK-OV-3 ovarian, over 100 µM; with BT-549 breast, over 100 µM; with UO-31 renal it was 59 µM. Moreover, the TGI in the test with SF-539 CNS is over 100 µM; in the test on HCC-2998 colon, 6.93 µM; in the test with HOP-62 NSCLC, 87.1 µM; in the test with SF-268 CNS, over 100 µM; in the test on CAKI-1 renal it was over 100 µM; with SR leukemia, over 100 µM. The TGI in the test with MDA-MB-435 is over 100 µM; with EKVX NSCLC it was over 100 µM; in the test on HOP-92 NSCLC, 63.7 µM; with TK-10 renal, over 100 µM; in the test with NCI-H460 lung, 51.4 µM; with COLO 205 colon, 30.7 µM. The TGI in the test with NCI/ADR-RES ovarian and with LOX IMVI melanoma was over 100 µM throughout.
`CCO[C@@]12CCC3CC4CC[C@@](OCC)(O1)C4C32` (stereo not given in full): the total growth inhibition concentration (TGI) with HS 578T breast, with MDA-N, with NCI-H23 lung, in the test with SK-OV-3 ovarian, in the test on BT-549 breast and in the test with UO-31 renal was over 100 µM in each case. Besides, the TGI with SF-539 CNS, with HCC-2998 colon, with HOP-62 NSCLC, with SF-268 CNS, in the test with CAKI-1 renal and with SR leukemia was over 100 µM in each case. Moreover, the total growth inhibition concentration (TGI) with MDA-MB-435, in the test on EKVX NSCLC, in the test on HOP-92 NSCLC, with TK-10 renal, in the test with NCI-H460 lung and with COLO 205 colon was over 100 µM throughout. The TGI with NCI/ADR-RES ovarian and in the test with LOX IMVI melanoma was over 100 µM throughout.
`CN1C(=O)[C@H](c2c[nH]c3ccccc23)[C@H](c2c[nH]c3ccccc23)C1=O`: the TGI with HS 578T breast is over 86.3 µM; in the test with MDA-N it was over 100 µM; in the test on NCI-H23 lung, over 65.1 µM; in the test with SK-OV-3 ovarian it was over 100 µM; in the test on BT-549 breast it was 55.7 µM; in the test on UO-31 renal, 62.4 µM. In addition, the TGI is over 54.3 µM in the test with SF-539 CNS; over 100 µM in the test on HCC-2998 colon; over 64.1 µM with HOP-62 NSCLC; over 100 µM with SF-268 CNS; over 38.8 µM in the test with CAKI-1 renal; over 74.5 µM with SR leukemia. Moreover, the TGI with MDA-MB-435 was over 77.6 µM; in the test on EKVX NSCLC it was over 100 µM; with HOP-92 NSCLC it was over 67.3 µM; in the test on TK-10 renal, 61.2 µM; with NCI-H460 lung, over 50.1 µM; with COLO 205 colon, over 37.9 µM. Further, the TGI in the test on NCI/ADR-RES ovarian is over 85.9 µM; with LOX IMVI melanoma it was 37.8 µM.
On to `C[C@@H](NC(=O)Cn1c(Cl)nc2ccccc21)c1ccccc1`, for which the TGI with HS 578T breast, in the test with MDA-N, in the test on NCI-H23 lung, in the test with SK-OV-3 ovarian, in the test with BT-549 breast and with UO-31 renal was over 100 µM throughout. Also, the TGI in the test with SF-539 CNS, in the test with HCC-2998 colon, in the test on HOP-62 NSCLC, in the test with SF-268 CNS, with CAKI-1 renal and in the test with SR leukemia was over 100 µM in each case. Also, the TGI in the test with MDA-MB-435, in the test with EKVX NSCLC, with HOP-92 NSCLC, in the test on TK-10 renal, in the test on NCI-H460 lung and in the test on COLO 205 colon was over 100 µM each time. Besides, the TGI in the test on NCI/ADR-RES ovarian and in the test on LOX IMVI melanoma was over 100 µM throughout.
`O=[N+]([O-])C(C(Cl)=C(Cl)Cl)=C(n1nnc2ccccc21)n1nnc2ccccc21`: the TGI in the test with HS 578T breast was 85.6 µM; in the test on MDA-N it was 61.2 µM; in the test on NCI-H23 lung, over 75.5 µM; with SK-OV-3 ovarian it was over 58 µM; with BT-549 breast it was 99.6 µM; in the test on UO-31 renal it was 52.6 µM. For the same compound, the TGI in the test on SF-539 CNS is 53.3 µM; in the test on HCC-2998 colon, over 67.1 µM; in the test with HOP-62 NSCLC, over 68.4 µM; in the test on SF-268 CNS, 70 µM; in the test on CAKI-1 renal, over 54.1 µM; in the test on SR leukemia, 17.4 µM. In addition, the TGI is 58.4 µM in the test with MDA-MB-435; over 74.6 µM in the test on EKVX NSCLC; over 81.6 µM with HOP-92 NSCLC; over 63.7 µM with TK-10 renal; over 68.8 µM with NCI-H460 lung; 51.9 µM in the test with COLO 205 colon. Further, the TGI with NCI/ADR-RES ovarian is 55.9 µM; with LOX IMVI melanoma, over 66.3 µM.
Turning to `CCOC(=O)N/N=C(\CC)NO`, the TGI with HS 578T breast, in the test with MDA-N, in the test on NCI-H23 lung, in the test with SK-OV-3 ovarian, with BT-549 breast and in the test on UO-31 renal was over 100 µM in each case. The TGI with SF-539 CNS, in the test with HCC-2998 colon, in the test with HOP-62 NSCLC, in the test on SF-268 CNS, in the test with CAKI-1 renal and in the test with SR leukemia was over 100 µM in each case. Moreover, the TGI in the test on MDA-MB-435, with EKVX NSCLC, in the test on HOP-92 NSCLC, in the test with TK-10 renal, with NCI-H460 lung and with COLO 205 colon was over 100 µM each time. Besides, the concentration for total growth inhibition (TGI) in the test on NCI/ADR-RES ovarian and in the test with LOX IMVI melanoma was over 100 µM throughout.
For the compound `C[C@H](c1ccccc1)n1c(N)c(-c2nc3ccccc3s2)c2ccc([N+](=O)[O-])cc2c1=O`, the TGI in the test with HS 578T breast was over 43.7 µM; in the test on MDA-N, over 80.4 µM; in the test on NCI-H23 lung, 6.66 µM; in the test on SK-OV-3 ovarian, over 100 µM; in the test with BT-549 breast, over 95.9 µM; with UO-31 renal it was 18.4 µM. In addition, the TGI in the test with SF-539 CNS was 54 µM; with HCC-2998 colon, over 85.1 µM; with HOP-62 NSCLC it was 56.9 µM; with SF-268 CNS, over 100 µM; in the test with CAKI-1 renal it was over 85.1 µM; in the test with SR leukemia, 13 µM. The TGI is over 79.7 µM with MDA-MB-435; over 100 µM in the test with EKVX NSCLC; 5.81 µM with HOP-92 NSCLC; over 100 µM with TK-10 renal; over 61.5 µM with NCI-H460 lung; 36.4 µM with COLO 205 colon. Moreover, the figures for the TGI in the test with NCI/ADR-RES ovarian and in the test with LOX IMVI melanoma were 22 µM and over 66.6 µM, respectively.
